The values below come from patent US20080249080A1, “Benzodiazepine Derivatives and Uses Thereof on Medical Field” (priority 2005, published 2008).

Experiment [1] deals with RET/E768D, RET/L790F, RET/Y791F, RET/A883F and RET/S891A mutants. The following applies: cited from earlier work.
In experiment [2] the test system is RET/C634R and RET/M918T mutants. The following applies: cited from earlier work.
For experiment [3], the system named is RET/V804L and RET/V804M mutants. The settings on record: cited from earlier work.
In experiment [4] the test system is NPA papillary thyroid carcinoma cell line. The experiment can be described thus: DNA fragmentation, NPA. The class given is cell-based, human. The following applies: 10 μM, 24 and 48 hours. On the procedure:
(§1) The authors also have tested compounds according to the invention, in particular RS-678 and RS-779 compounds, also on OVCAR3 ovary carcinoma cell lines, ARO anaplastic thyroid and NPA papillary thyroid human carcinoma cell lines.
(§2) Subsequently, the same cell lines, except OVCAR3, were tested with fourteen new synthetic compounds at 10 μM concentration for 24 and 48 hours: eleven induced the expected cellular death.

Experiment [5] deals with K562 cell line. The experiment is described as follows: DNA fragmentation, K562 leukemic cell line. Type of experiment: cell-based, human. The following applies: 10 μM, 24 and 48 hours, FIGS. 18, 20, 21. On the procedure: as §2
The test system of experiment [6] is ARO anaplastic thyroid carcinoma cell line. The experiment is described as follows: DNA fragmentation, ARO. The following applies: 10 μM, 24 and 48 hours. Type of experiment: cell-based, human. On the procedure: as §1, §2
In experiment [7] the test system is K562 cell line. The experiment can be described thus: DNA fragmentation, K562 leukemic cell line. Type of experiment: cell-based, human. The following applies: 5, 10, 15 μM, 8, 16 and 24 hours, FIG. 1 A, B.
The subject of experiment [8] is mixed lymphocytic cultures from marrow or peripheral blood of patients suffering from chronic myelogenous leukemia. The experiment can be described thus: DNA fragmentation, mixed lymphocytic cultures of CML patients. The class given is cell-based, human. The settings on record: samples from patients (some Glivec resistant); 10 μM; 24, 48 and 72 hours; FIGS. 12-14.
For a further experiment, the system named is ARO cell line. The experiment is described as follows: Percentage of dead cells, ARO. Type of experiment: cell-based, human. The following applies: after 24 hours.
The subject of another experiment is NPA cell line. The experiment is described as follows: Percentage of apoptosis, NPA. Type of experiment: cell-based, human. The settings on record: after 24 hours.
Experiment [9] has as its system K562 cell line. The experiment is described as follows: Percentage of apoptosis, K562. The following applies: after 24 hours. The class given is cell-based, human.
Experiment [10] relates to tested cell lines (K562, ARO, NPA). The experiment is described as follows: Relative cellular death in the tested cell lines. Type of experiment: cell-based, human. On the procedure: as §2
In the next experiment the test system is HL-60 and Jurkat cells. The following applies: laboratory experiments; cited from earlier work.

In the case of `Cc1ccc(-c2nn(C(C)(C)C)c3ncnc(N)c23)cc1` [PP1], the “inhibition of in vivo self-phosphorylation” value in experiment [1] was “inhibited effectively”. For the same molecule, the “block of the transforming activity” value in [2] was “able to block”. Besides, the “sensitivity to the action of inhibitors” value in [3] is “less sensitive”.
Take `COC(=O)CC1c2cccn2N(C)c2ccccc2N1C(=O)c1ccccc1` (stereo not drawn) [RS-337, methyl 10,11-dihydro-5-methyl-10-benzoyl-5H-pyrrolo[1,2-b][1,2,5]-benzotriazepine-11-acetate]: the DNA fragmentation result (in [4]; in the experiment on K562 cell line [5]; in experiment [6]) was “DNA fragmentation” in each case.
Regarding `COC(=O)CC1c2cccn2N(C)c2ccccc2N1C(=O)c1ccc(OC)cc1` (stereo not drawn) [RS-421, methyl 10,11-dihydro-5-methyl-10-(4-metoxybenzoyl)-5H-pyrrolo[1,2-b][1,2,5]-benzotriazepine-11-acetate], the DNA fragmentation entry (in experiment [4]; with K562 cell line [5]; in [6]) was “DNA fragmentation” in each case.
In the case of `O=C(O)C1Nc2ccccc2S(=O)(=O)n2cccc21` (stereo not drawn) [RS-735, 10,11-dihydropyrrolo[1,2-b][1,2,5]benzothiadiazepine-11-carboxylic 5,5-dioxide acid], the DNA fragmentation result (in [4]; in the experiment on K562 cell line [5]; in [6]) was “not present” throughout. Besides, in the experiment with K562 cell line [7], the “apoptosis / DNA fragmentation” value is on record as “not able to produce the DNA fragmentation”.
In the case of `O=S1(=O)c2ccccc2NC(CO)c2cccn21` (stereo not drawn) [RS-750, 10,11-dihydropyrrolo [1,2-b][1,2,5]benzothiadiazepine-11-methanol 5,5-dioxide], the DNA fragmentation entry (in [4]; in the experiment with K562 cell line [5]; in [6]) was “not present” each time.
In the case of `CCOC(=O)CC1Nc2ccccc2S(=O)(=O)n2cccc21` (stereo not drawn) [RS-752, ethyl 10,11-dihydropyrrolo[1,2-b][1,2,5]benzothiadiazepine-11-acetate 5,5-dioxide], the DNA fragmentation result (in [8]; in experiment [4]; in the experiment with K562 cell line [5]; in [6]) was “DNA fragmentation” each time.
For `O=C(O)CC1Nc2ccccc2S(=O)(=O)n2cccc21` (stereo not drawn) [RS-761, 10,11-dihydropyrrolo[1,2-b][1,2,5]benzothiadiazepine-11-acetic 5,5-dioxide acid], the DNA fragmentation result (in experiment [4]; in the experiment with K562 cell line [5]; in experiment [6]) was “not present” each time.
For the molecule `O=C(OC(c1ccc(Cl)cc1)C1Nc2ccccc2S(=O)(=O)n2cccc21)c1ccccc1` (stereo not drawn) [RS-786, 11-(4-Chlorophenybenzoyloxymethylene)10,11-dihydro pyrrolo[1,2-b][1,2,5]benzothiadiazepine 5,5-dioxide], the DNA fragmentation result (in experiment [4]; in the experiment with K562 cell line [5]; in [6]) was “not present” throughout.
Turning to `CCOC(=O)C1c2cccn2S(=O)(=O)c2ccccc2N1C(=O)c1ccccc1` (stereo not drawn) [RS-2629, ethyl 10,11-dihydro-10-(benzoyl)pyrrolo[1,2-b][1,2,5]benzo-thiadiazepine-11-carboxylate 5,5-dioxide], the “percentage of dead cells” value in the experiment with ARO cell line is “approximately 60%”. Moreover, the percentage of apoptosis in the experiment on NPA cell line came out at 80%; in the experiment with K562 cell line [9], 85%. In addition, the DNA fragmentation result (in [4]; with K562 cell line [5]; in [6]) was “DNA fragmentation” in each case. Also, the “cellular death relative to other compounds” value in experiment [10] is on record as “greater cellular death”.
As to `CCOC(=O)C1c2cccn2S(=O)(=O)c2ccccc2N1C(=O)c1ccc(Cl)cc1` (stereo not drawn) [RS-2630, ethyl 10,11-dihydro-10-(4-chlorobenzoyl)pyrrolo[1,2-b][1,2,5]benzothiadiazepine-11-carboxylate 5,5-dioxide], in the experiment on ARO cell line, the “percentage of dead cells” value is “approximately 60%”. Further, the figures for the percentage of apoptosis with NPA cell line and in the experiment with K562 cell line [9] were 80% and 85%, respectively. For the same molecule, the DNA fragmentation result (in experiment [4]; with K562 cell line [5]; in experiment [6]) was “DNA fragmentation” in each case. For the same molecule, the “cellular death relative to other compounds” value in experiment [10] is given as “greater cellular death”.
`CCOC(=O)C1c2cccn2S(=O)(=O)c2ccccc2N1C(=O)c1cccc2ccccc12` (stereo not drawn) [RS-2631, ethyl 10,11-dihydro-10-(1-naphtoyl)pyrrolo[1,2-b][1,2,5]benzo-thiadiazepine-11-carboxylate 5,5-dioxide]: the DNA fragmentation entry (in experiment [4]; in the experiment with K562 cell line [5]; in experiment [6]) was “DNA fragmentation” each time.
Turning to `CCOC(=O)C1c2cccn2S(=O)(=O)c2ccccc2N1C(=O)c1ccc(F)cc1` (stereo not drawn) [RS-2632, ethyl 10,11-dihydro-10-(4-fluorobenzoyl)pyrrolo[1,2-b][1,2,5]benzothiadiazepine-11-carboxylate 5,5-dioxide], the DNA fragmentation result (in experiment [4]; in the experiment on K562 cell line [5]; in experiment [6]) was “DNA fragmentation” each time.
As to `CCOC(=O)CC1c2cccn2S(=O)(=O)c2ccccc2N1C(=O)c1ccccc1` (stereo not drawn) [RS-2645, ethyl 10,11-dihydro-10-(benzoyl)pyrrolo[1,2-b][1,2,5]benzo-thiadiazepine-11-acetate 5,5-dioxide], the DNA fragmentation result (in experiment [4]; with K562 cell line [5]; in experiment [6]) was “DNA fragmentation” throughout. The “cellular death relative to other compounds” value in experiment [10] is on record as “greater cellular death”.
For `CCOC(=O)CC1c2cccn2S(=O)(=O)c2ccccc2N1C(=O)c1ccc(F)cc1` (stereo not drawn) [RS-2652, ethyl 10,11-dihydro-10-(4-fluorobenzoyl)pyrrolo[1,2-b][1,2,5]benzothiadiazepine-11-acetate 5,5-dioxide], the DNA fragmentation entry (in [4]; in the experiment on K562 cell line [5]; in experiment [6]) was “DNA fragmentation” throughout.
For the molecule `CCOC(=O)CC1c2cccn2S(=O)(=O)c2ccccc2N1C(=O)c1ccc(Cl)cc1` (stereo not drawn) [RS-2660, ethyl 10,11-dihydro-10-(4-chlorobenzoyl)pyrrolo[1,2-b][1,2,5]benzothiadiazepine-11-acetate 5,5-dioxide], the DNA fragmentation result (in [4]; in the experiment on K562 cell line [5]; in [6]) was “DNA fragmentation” in each case.
`CCOC(=O)CC1c2cccn2S(=O)(=O)c2ccccc2N1C(=O)c1cccc2ccccc12` (stereo not drawn) [RS-2661, ethyl 10,11-dihydro-10-(1-naphtoyl)pyrrolo[1,2-b][1,2,5]benzothiadiazepine-11-acetate 5,5-dioxide]: the DNA fragmentation entry (in experiment [4]; in the experiment on K562 cell line [5]; in experiment [6]) was “DNA fragmentation” throughout.
Take `CC[C@@]1(O)C(=O)OCc2c1cc1n(c2=O)Cc2cc3ccccc3nc2-1` [camptothecin]: the induction of apoptosis result with HL-60 and Jurkat cells was “able to induce apoptosis”.
As to `COc1cccc2c1C(=O)c1c(O)c3c(c(O)c1C2=O)C[C@@](O)(C(C)=O)C[C@@H]3O[C@H]1C[C@H](N)[C@H](O)[C@H](C)O1` [daunoribucin], the induction of apoptosis entry in the experiment on HL-60 and Jurkat cells is “able to induce apoptosis”.
For the molecule `COc1cccc2c1C(=O)c1c(O)c3c(c(O)c1C2=O)C[C@@](O)(C(=O)CO)C[C@@H]3O[C@H]1C[C@H](N)[C@H](O)[C@H](C)O1` [doxorubicin], in the experiment with HL-60 and Jurkat cells, the induction of apoptosis result was “able to induce apoptosis”.
For the molecule `COc1cc([C@@H]2c3cc4c(cc3[C@@H](O[C@@H]3O[C@@H]5CO[C@@H](C)O[C@H]5[C@H](O)[C@H]3O)[C@H]3COC(=O)[C@H]23)OCO4)cc(OC)c1O` [etoposide], the induction of apoptosis entry in the experiment on HL-60 and Jurkat cells is “able to induce apoptosis”.
